Assay results: US10981911B2, “Imidazopyrrolopyridine as inhibitors of the JAK family of kinases” (Janssen Pharmaceutica NV, priority 2016, dated 2021)

What was measured:
Assay type in all cases: biochemical
Tyk2-JH1JH2 = Tyk2-JH1JH2 (Homo sapiens (Human), UniProt P29597, C1142A/C936A); test: Enzymatic inhibition assay (RapidFire HTMS), Tyk2; settings: 50 μM ATP, 200 μM substrate
In short: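 Compounds were tested in duplicate as 11-point 1:3 or 1:4 DMSO dilutions (≤0.25% DMSO final) in 20 μL reactions at 25 °C for 90 min, with Tyk2 pre-incubated 30 min with 2 mM ATP. Reactions were quenched with TFA plus internal standard peptide, and phosphorylated product was quantified by RapidFire C4 SPE–ESI MS.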

JAK1-JH1JH2 = JAK1-JH1JH2 (Homo sapiens (Human), UniProt P23458); test: Enzymatic inhibition assay (RapidFire HTMS), JAK1; settings: 12.5 μM ATP, 200 μM substrate; read-out: JAK1-JH2JH1 IC50
In short: (§1)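 Quenched with 0.5% TFA plus internal-standard peptide; phosphorylated product quantified by RapidFire C4 SPE–ESI-MS, 11-point 1:3 or 1:4 dilutions in duplicate.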

JAK3-JH1JH2 = JAK3-JH1JH2 (Homo sapiens (Human), UniProt P52333); test: Enzymatic inhibition assay (RapidFire HTMS), JAK3; settings: 150 μM ATP, 40 μM substrate
In short: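 Compounds tested in duplicate over 11-point 1:3 or 1:4 dilution series; no-enzyme wells as negative control. After 45 min at 25 °C, TFA quench with internal standard, and phosphorylated product quantified by RapidFire–QTrap mass spectrometry relative to the uninhibited reaction.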

JAK2-JH1JH2 = JAK2-JH1JH2 (Homo sapiens (Human), UniProt O60674); test: Enzymatic inhibition assay (RapidFire HTMS), JAK2; settings: 30 μM ATP, 40 μM substrate
In short: as §1

Tyk2-JH1JH2, sequence (P29597 580-1182 C936A/C1142A): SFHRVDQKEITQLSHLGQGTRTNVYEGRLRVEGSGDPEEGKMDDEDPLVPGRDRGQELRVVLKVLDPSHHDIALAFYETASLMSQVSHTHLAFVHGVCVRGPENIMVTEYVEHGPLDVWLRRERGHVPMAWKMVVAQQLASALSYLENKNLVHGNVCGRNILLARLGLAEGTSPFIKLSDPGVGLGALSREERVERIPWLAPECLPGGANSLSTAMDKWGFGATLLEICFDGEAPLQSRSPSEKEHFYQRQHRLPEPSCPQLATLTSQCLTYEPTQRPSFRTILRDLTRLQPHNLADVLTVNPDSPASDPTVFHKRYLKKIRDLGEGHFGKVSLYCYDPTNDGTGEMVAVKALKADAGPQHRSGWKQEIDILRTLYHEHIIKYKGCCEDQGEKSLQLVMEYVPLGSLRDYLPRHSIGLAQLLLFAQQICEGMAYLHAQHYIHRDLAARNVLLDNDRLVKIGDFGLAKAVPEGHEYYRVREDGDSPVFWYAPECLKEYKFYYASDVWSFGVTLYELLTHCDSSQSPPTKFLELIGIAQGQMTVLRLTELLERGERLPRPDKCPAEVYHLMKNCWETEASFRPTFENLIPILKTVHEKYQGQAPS
JAK1-JH1JH2, sequence (P23458 574-1154): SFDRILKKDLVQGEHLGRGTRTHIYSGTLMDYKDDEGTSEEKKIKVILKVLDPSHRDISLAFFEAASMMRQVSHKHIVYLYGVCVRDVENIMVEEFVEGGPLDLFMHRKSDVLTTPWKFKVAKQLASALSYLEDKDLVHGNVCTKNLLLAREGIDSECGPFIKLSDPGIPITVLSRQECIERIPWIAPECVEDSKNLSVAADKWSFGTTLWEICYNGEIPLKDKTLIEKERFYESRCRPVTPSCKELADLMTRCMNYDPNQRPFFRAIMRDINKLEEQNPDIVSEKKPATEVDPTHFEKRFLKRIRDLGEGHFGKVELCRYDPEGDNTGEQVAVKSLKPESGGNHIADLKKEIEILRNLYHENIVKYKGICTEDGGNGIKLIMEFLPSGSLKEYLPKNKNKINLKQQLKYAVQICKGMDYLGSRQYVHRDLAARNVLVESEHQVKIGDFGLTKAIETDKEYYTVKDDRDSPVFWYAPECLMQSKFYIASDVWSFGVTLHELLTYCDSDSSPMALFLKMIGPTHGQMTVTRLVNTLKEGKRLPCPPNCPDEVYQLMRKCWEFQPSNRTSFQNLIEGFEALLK
JAK3-JH1JH2, sequence (P52333 512-1124): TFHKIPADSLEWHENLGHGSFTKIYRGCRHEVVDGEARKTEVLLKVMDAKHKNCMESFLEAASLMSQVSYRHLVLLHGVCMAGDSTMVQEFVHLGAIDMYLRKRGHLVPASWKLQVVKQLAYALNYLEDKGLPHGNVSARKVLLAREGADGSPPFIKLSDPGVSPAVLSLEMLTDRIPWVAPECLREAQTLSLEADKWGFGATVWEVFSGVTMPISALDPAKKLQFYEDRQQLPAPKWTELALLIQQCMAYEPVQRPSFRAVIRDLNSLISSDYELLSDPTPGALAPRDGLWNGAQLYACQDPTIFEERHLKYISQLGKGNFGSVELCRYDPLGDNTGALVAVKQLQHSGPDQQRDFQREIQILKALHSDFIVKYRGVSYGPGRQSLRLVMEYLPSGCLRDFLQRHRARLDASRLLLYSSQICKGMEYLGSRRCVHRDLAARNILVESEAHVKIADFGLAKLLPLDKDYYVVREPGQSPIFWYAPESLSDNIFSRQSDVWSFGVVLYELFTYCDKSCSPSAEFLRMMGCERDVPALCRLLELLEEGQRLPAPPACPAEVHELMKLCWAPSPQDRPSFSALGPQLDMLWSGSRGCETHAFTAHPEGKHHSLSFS
JAK2-JH1JH2, sequence (O60674 532-1132): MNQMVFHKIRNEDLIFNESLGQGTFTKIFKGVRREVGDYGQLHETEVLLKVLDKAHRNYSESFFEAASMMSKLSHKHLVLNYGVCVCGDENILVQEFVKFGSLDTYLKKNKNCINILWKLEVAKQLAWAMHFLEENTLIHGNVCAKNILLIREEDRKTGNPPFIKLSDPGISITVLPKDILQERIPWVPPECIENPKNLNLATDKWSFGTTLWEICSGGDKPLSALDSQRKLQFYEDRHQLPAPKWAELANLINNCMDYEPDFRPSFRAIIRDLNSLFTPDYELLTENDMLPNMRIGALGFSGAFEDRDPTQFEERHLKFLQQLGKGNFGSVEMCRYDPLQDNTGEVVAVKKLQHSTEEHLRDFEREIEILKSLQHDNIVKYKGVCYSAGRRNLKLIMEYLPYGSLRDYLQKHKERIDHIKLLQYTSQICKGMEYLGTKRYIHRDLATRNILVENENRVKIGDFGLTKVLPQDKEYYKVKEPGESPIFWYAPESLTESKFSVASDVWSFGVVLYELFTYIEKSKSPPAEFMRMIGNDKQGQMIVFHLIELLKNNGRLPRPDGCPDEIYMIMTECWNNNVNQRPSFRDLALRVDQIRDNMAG

SMILES	IC50 (Tyk2-JH1JH2)	IC50 (JAK1-JH1JH2)	IC50 (JAK3-JH1JH2)	IC50 (JAK2-JH1JH2)
COCCOCCOCCOCCc1nc2cnc3[nH]ccc3c2n1[C@H]1CC[C@H](CC#N)CC1 [Ex. 192, 2-((1r,4r)-4-(2-(2,5,8,11-Tetraoxatridecan-13-yl)imidazo[4,5-d]pyrrolo[2,3-b]pyridin-1(6H)-yl)cyclohexyl)acetonitrile]	25.8 nM	1 nM	1120 nM	69 nM
Cc1c[nH]c2ncc3nc(CC(=O)NCC(C)(C)O)n([C@H]4CC[C@H](CC#N)CC4)c3c12 [Ex. 190, 2-(1-((1r,4r)-4-(cyanomethyl)cyclohexyl)-8-methyl-1,6-dihydroimidazo[4,5-d]pyrrolo[2,3-b]pyridin-2-yl)-N-(2-hydroxy-2-methylpropyl)acetamide]	458 nM	12.4 nM	102 nM	150 nM
CS(=O)(=O)N1CC(c2nc3cnc4[nH]ccc4c3n2[C@H]2CC[C@H](CC#N)CC2)C1 [Ex. 134, 2-((1r,4r)-4-(2-(1-(Methylsulfonyl)azetidin-3-yl)imidazo[4,5-d]pyrrolo[2,3-b]pyridin-1(6H)-yl)cyclohexyl)acetonitrile]	91.2 nM	0.8 nM	1290 nM	118 nM
CNC(=O)c1nc2cnc3[nH]ccc3c2n1[C@H]1CC[C@H](CC#N)CC1 [Ex. 133, 1-((1r,4r)-4-(Cyanomethyl)cyclohexyl)-N-methyl-1,6-dihydroimidazo[4,5-d]pyrrolo[2,3-b]pyridine-2-carboxamide]	19.8 nM	0.8 nM	154 nM	9.4 nM
Cc1cc(-c2nc3cnc4[nH]ccc4c3n2[C@H]2CC[C@H](CC#N)CC2)[nH]n1 [Ex. 81, 2-((1r,4r)-4-(2-(3-Methyl-1H-pyrazol-5-yl)imidazo[4,5-d]pyrrolo[2,3-b]pyridin-1(6H)-yl)cyclohexyl)acetonitrile]	6 nM	0.4 nM	117 nM	3.7 nM
CC(C)(O)CC(=O)NCc1nc2cnc3[nH]ccc3c2n1[C@H]1CC[C@H](CC#N)CC1 [Ex. 116, N-((1-((1r,4r)-4-(Cyanomethyl)cyclohexyl)-1,6-dihydroimidazo[4,5-d]pyrrolo[2,3-b]pyridin-2-yl)methyl)-3-hydroxy-3-methylbutanamide]	50.9 nM	0.6 nM	1190 nM	86.7 nM
N#CC[C@H]1CC[C@H](n2c(CC(=O)NCC3(O)COC3)nc3cnc4[nH]ccc4c32)CC1 [Ex. 24, 2-(1-((1r,4r)-4-(Cyanomethyl)cyclohexyl)-1,6-dihydroimidazo[4,5-d]pyrrolo[2,3-b]pyridin-2-yl)-N-((3-hydroxyoxetan-3-yl)methyl)acetamide]	3.3 nM	0.1 nM	57.5 nM	4.9 nM
N#CC[C@H]1CC[C@H](n2c(-c3ncc[nH]3)nc3cnc4[nH]ccc4c32)CC1 [Ex. 56, 2-((1r,4r)-4-(2-(1H-Imidazol-2-yl)imidazo[4,5-d]pyrrolo[2,3-b]pyridin-1(6H)-yl)cyclohexyl)acetonitrile]	7.2 nM	0.2 nM	32.9 nM	1.9 nM
CC(C)/C(N)=N/OCc1nc2cnc3[nH]ccc3c2n1[C@H]1CC[C@H](CC#N)CC1 [Ex. 150, (Z*)—N-((1-((1r,4r)-4-(Cyanomethyl)cyclohexyl)-1,6-dihydroimidazo[4,5-d]pyrrolo[2,3-b]pyridin-2-yl)methoxy)isobutyrimidamide]	34 nM	1.2 nM	110 nM	10 nM
C#Cc1ccc(C(=O)c2ccc(OCc3nc4cnc5[nH]ccc5c4n3[C@H]3CC[C@H](CC#N)CC3)cc2)cc1 [Ex. 130, 2-((1r,4r)-4-(2-((4-(4-Ethynylbenzoyl)phenoxy)methyl)imidazo[4,5-d]pyrrolo[2,3-b]pyridin-1(6H)-yl)cyclohexyl)acetonitrile]	19.4 nM	0.8 nM	130 nM	15.7 nM
N#CC[C@H]1CC[C@H](n2c(CNC(=O)C3CCCCC3)nc3cnc4[nH]ccc4c32)CC1 [Ex. 139, N-((1-((1r,4r)-4-(Cyanomethyl)cyclohexyl)-1,6-dihydroimidazo[4,5-d]pyrrolo[2,3-b]pyridin-2-yl)methyl)cyclohexanecarboxamide]	53.5 nM	0.9 nM	746 nM	66.9 nM
N#CC[C@H]1CC[C@H](n2c(-c3cnn(CC(=O)NC4CC4)c3)nc3cnc4[nH]ccc4c32)CC1 [Ex. 185, 2-(4-(1-((1r,4r)-4-(Cyanomethyl)cyclohexyl)-1,6-dihydroimidazo[4,5-d]pyrrolo[2,3-b]pyridin-2-yl)-1H-pyrazol-1-yl)-N-cyclopropylacetamide]	36.4 nM	2.1 nM	150 nM	19.8 nM
N#CC[C@H]1CC[C@H](n2c(COC(=O)NCC3CCCCC3)nc3cnc4[nH]ccc4c32)CC1 [Ex. 146, (1-((1r,4r)-4-(Cyanomethyl)cyclohexyl)-1,6-dihydroimidazo[4,5-d]pyrrolo[2,3-b]pyridin-2-yl)methyl (cyclohexylmethyl)carbamate]	11.3 nM	1.1 nM	319 nM	18 nM
CC(=O)N1CC(c2nc3cnc4[nH]ccc4c3n2[C@H]2CC[C@H](CC#N)CC2)C1 [Ex. 147, 2-((1r,4r)-4-(2-(1-Acetylazetidin-3-yl)imidazo[4,5-d]pyrrolo[2,3-b]pyridin-1(6H)-yl)cyclohexyl)acetonitrile]	87.9 nM	1.1 nM	1970 nM	315 nM
CC(C)(O)CNC(=O)Cc1nc2cnc3[nH]cc(Br)c3c2n1[C@H]1CC[C@H](CC#N)CC1 [Ex. 189, 2-(8-bromo-1-((1r,4r)-4-(cyanomethyl)cyclohexyl)-1,6-dihydroimidazo[4,5-d]pyrrolo[2,3-b]pyridin-2-yl)-N-(2-hydroxy-2-methylpropyl)acetamide]	182 nM	3.4 nM	16.6 nM	42.3 nM
CC(C)NC(=O)NCc1nc2cnc3[nH]ccc3c2n1[C@H]1CC[C@H](CC#N)CC1 [Ex. 171, 1-((1-((1r,4r)-4-(Cyanomethyl)cyclohexyl)-1,6-dihydroimidazo[4,5-d]pyrrolo[2,3-b]pyridin-2-yl)methyl)-3-isopropylurea]	18.8 nM	2 nM	211 nM	33.9 nM
CCOC(=O)N1CC(c2nc3cnc4[nH]ccc4c3n2[C@H]2CC[C@H](CC#N)CC2)C1 [Ex. 128, Ethyl 3-(1-((1r,4r)-4-(Cyanomethyl)cyclohexyl)-1,6-dihydroimidazo[4,5-d]pyrrolo[2,3-b]pyridin-2-yl)azetidine-1-carboxylate]	64.4 nM	0.7 nM	1090 nM	110 nM
